Where two headings read alike, the source gives them in different places.
How the values were obtained:
Puccinia recondita = assay: In vivo preventive test on Puccinia recondita (brown rust on wheat); settings: 500 ppm of active ingredient, evaluated 11 days after inoculation
Method: (§1) Solvent: 5% by volume of Dimethyl sulfoxide
(§2) • 10% by volume of Acetone Emulsifier: 1 μl of Tween® 80 per mg of active ingredient
(§3) The active ingredients are made soluble and homogenized in a mixture of Dimethyl sulfoxide/Acetone/Tween® 80 and then diluted in water to the desired concentration.
(§4) The young plants of wheat are treated by spraying the active ingredient prepared as described above. Control plants are treated only with an aqueous solution of Acetone/Dimethyl sulfoxide/Tween® 80.
After 24 hours, the plants are contaminated by spraying the leaves with an aqueous suspension of Puccinia recondita spores. The contaminated wheat plants are incubated for 24 hours at 20° C. and at 100% relative humidity and then for 10 days at 20° C. and at 70-80% relative humidity.
(§5) The test is evaluated 11 days after the inoculation. 0% means an efficacy which corresponds to that of the control plants while an efficacy of 100% means that no disease is observed.

Uromyces appendiculatus = assay: In vivo preventive test on Uromyces appendiculatus (bean rust); settings: for Efficacy: 500 ppm of active ingredient, evaluated 11 days after inoculation; for pest or weed control at 500 ppm: Uromyces appendiculatus, 264 h
Method: as §1, §2, §3
The young plants of bean are treated by spraying the active ingredient prepared as described above. Control plants are treated only with an aqueous solution of Acetone/Dimethyl sulfoxide/Tween® 80.
After 24 hours, the plants are contaminated by spraying the leaves with an aqueous suspension of Uromyces appendiculatus spores. The contaminated bean plants are incubated for 24 hours at 20° C. and at 100% relative humidity and then for 10 days at 20° C. and at 70-80% relative humidity.
as §5

Sphaerotheca fuliginea = assay: In vivo preventive test on Sphaerotheca fuliginea (powdery mildew on cucurbits); settings: 500 ppm of active ingredient; gherkin; evaluated 15 days after inoculation
Method: as §1, §2, §3
The young plants of gherkin are treated by spraying the active ingredient prepared as described above. Control plants are treated only with an aqueous solution of Acetone/Dimethyl sulfoxide/Tween® 80.
After 24 hours, the plants are contaminated by spraying the leaves with an aqueous suspension of Sphaerotheca fuliginea spores. The contaminated gherkin plants are incubated for 72 hours at 18° C. and at 100% relative humidity and then for 12 days at 20° C. and at 70-80% relative humidity.
The test is evaluated 15 days after the inoculation. 0% means an efficacy which corresponds to that of the control plants while an efficacy of 100% means that no disease is observed.

Alternaria brassicae = assay: In vivo preventive test on Alternaria brassicae (leaf spot on radish); settings: 500 ppm of active ingredient, spray 24 hours before inoculation, evaluated 6 days after inoculation
Method: as §1, §2, §3
The young plants of radish are treated by spraying the active ingredient prepared as described above. Control plants are treated only with an aqueous solution of Acetone/Dimethyl sulfoxide/Tween® 80.
After 24 hours, the plants are contaminated by spraying the leaves with an aqueous suspension of Alternaria brassicae spores. The contaminated radish plants are incubated for 6 days at 20° C. and at 100% relative humidity.
The test is evaluated 6 days after the inoculation. 0% means an efficacy which corresponds to that of the control plants while an efficacy of 100% means that no disease is observed.

Pyrenophora teres = assay: In vivo preventive test on Pyrenophora teres (barley); settings: 500 ppm of active ingredient, evaluated 14 days after inoculation
Method: as §1, §2, §3
The young plants of barley are treated by spraying the active ingredient prepared as described above. Control plants are treated only with an aqueous solution of Acetone/Dimethyl sulfoxide/Tween® 80.
After 24 hours, the plants are contaminated by spraying the leaves with an aqueous suspension of Pyrenophora teres spores. The contaminated barley plants are incubated for 48 hours at 20° C. and at 100% relative humidity and then for 12 days at 20° C. and at 70-80% relative humidity.
The test is evaluated 14 days after the inoculation. 0% means an efficacy which corresponds to that of the control plants while an efficacy of 100% means that no disease is observed.

Septoria tritici = assay: In vivo preventive test on Septoria tritici (wheat); settings: 500 ppm of active ingredient, evaluated 24 days after inoculation
Method: as §1, §2, §3, §4
After 24 hours, the plants are contaminated by spraying the leaves with an aqueous suspension of Septoria tritici spores. The contaminated wheat plants are incubated for 72 hours at 18° C. and at 100% relative humidity and then for 21 days at 20° C. and at 90% relative humidity.
The test is evaluated 24 days after the inoculation. 0% means an efficacy which corresponds to that of the control plants while an efficacy of 100% means that no disease is observed.

[1] = log P by HPLC on reversed-phase column (C 18), EEC Directive 79/831 Annex V.A8; type: physicochemical; settings: Table 1, HPLC C 18, 40° C., 0.1% aqueous formic acid and acetonitrile, gradient 10% to 90% acetonitrile, two values = mixture of endo and exo isomers
Method: In table 1, the log P values were determined in accordance with EEC Directive 79/831 Annex V.A8 by HPLC (High Performance Liquid Chromatography) on a reversed-phase column (C 18), using the method described below:
Temperature: 40° C.; Mobile phases: 0.1% aqueous formic acid and acetonitrile; linear gradient from 10% acetonitrile to 90% acetonitrile.
Calibration was carried out using unbranched alkan-2-ones (comprising 3 to 16 carbon atoms) with known log P values (determination of the log P values by the retention times using linear interpolation between two successive alkanones). lambda-max-values were determined using UV-spectra from 200 nm to 400 nm and the peak values of the chromatographic signals.

| logP [1] | SMILES | Efficacy (Puccinia recondita) | Efficacy (Uromyces appendiculatus) | Efficacy (Sphaerotheca fuliginea) | Efficacy (Alternaria brassicae) | Efficacy (Pyrenophora teres) | Efficacy (Septoria tritici) | pest or weed control at 500 ppm (Uromyces appendiculatus; read-out: Efficacy, 500 ppm of active ingredient, evaluated 11 days after inoculation) | pest or weed control at 500 ppm (Uromyces appendiculatus; read-out: Efficacy, 500 ppm, evaluated 11 days after inoculation, Table F2 comparison) | pest or weed control at 500 ppm (Uromyces appendiculatus; read-out: Efficacy, 500 ppm, evaluated 11 days after inoculation, Table F3 comparison) | chromatographic logP ([1]; reversed-phase HPLC column (C 18)) |
| --- | --- | --- | --- | --- | --- | --- | --- | --- | --- | --- | --- |
|  | Cn1nc(C(F)F)c(C(=O)N(Cc2ccccc2C2CC3CCC2C3)C2CC2)c1F (mixture of isomers) [I.03] | 98% | 100% | 100% | 96% | 100% | 100% |  |  |  |  |
|  | Cn1cc(C(=O)N(Cc2ccccc2C2CC3CCC2C3)C2CC2)c(C(F)F)n1 (mixture of isomers) [I.05] | 94% | 91% | 95% | 80% | 71% | 86% |  |  |  |  |
|  | Cn1nc(C(F)F)c(C(=S)N(Cc2ccccc2C2CC3CCC2C3)C2CC2)c1F (mixture of isomers) [I.18] | 88% | 100% | 100% | 97% | 94% | 100% |  |  |  |  |
|  | Cn1cc(C(=S)N(Cc2ccccc2C2CC3CCC2C3)C2CC2)c(C(F)F)n1 (mixture of isomers) [I.19] | 88% |  | 95% | 75% |  | 98% |  |  |  |  |
| 4.90 | Cn1nc(C(F)F)c(C(=O)N(Cc2cc(C34CCCC3C4(Cl)Cl)ccc2Cl)C2CC2)c1F (centres unmarked) [I.09] |  | 84% | 100% | 75% | 88% | 100% |  |  |  |  |
| 5.22 | Cn1nc(C(F)F)c(C(=O)N(Cc2cc(Cl)ccc2C23CCCCC2C3(Cl)Cl)C2CC2)c1F (centres unmarked) [I.11] | 75% |  | 100% | 75% |  | 75% |  |  |  |  |
| 5.25 | Cn1nc(C(F)F)c(C(=O)N(Cc2cc(C34CCCCC3C4(Cl)Cl)ccc2Cl)C2CC2)c1F (centres unmarked) [I.12] |  |  | 100% | 97% | 75% | 94% |  |  |  |  |
| 5.17 | Cn1nc(C(F)F)c(C(=O)N(Cc2ccccc2C23CCCCCC2C3(Cl)Cl)C2CC2)c1F (centres unmarked) [I.13] | 81% |  | 100% | 75% | 75% | 88% |  |  |  |  |
| 5.54 | Cn1nc(C(F)F)c(C(=O)N(Cc2cc(Cl)ccc2C23CCCCCC2C3(Cl)Cl)C2CC2)c1F (centres unmarked) [I.14] | 75% |  | 100% | 83% |  | 94% |  |  |  |  |
| 6.46 | CC(C)c1ccc(C2=CC3CCC2(C)C3(C)C)cc1CN(C(=O)c1c(C(F)F)nn(C)c1F)C1CC1 (centres unmarked) [I.16] | 94% |  | 100% | 79% | 94% | 100% |  |  |  |  |

| SMILES | logP [1] | Efficacy (Puccinia recondita) | Efficacy (Uromyces appendiculatus) | Efficacy (Sphaerotheca fuliginea) | Efficacy (Alternaria brassicae) | Efficacy (Pyrenophora teres) | Efficacy (Septoria tritici) | pest or weed control at 500 ppm (Uromyces appendiculatus; read-out: Efficacy, 500 ppm of active ingredient, evaluated 11 days after inoculation) | pest or weed control at 500 ppm (Uromyces appendiculatus; read-out: Efficacy, 500 ppm, evaluated 11 days after inoculation, Table F2 comparison) | pest or weed control at 500 ppm (Uromyces appendiculatus; read-out: Efficacy, 500 ppm, evaluated 11 days after inoculation, Table F3 comparison) | chromatographic logP ([1]; reversed-phase HPLC column (C 18)) |
| --- | --- | --- | --- | --- | --- | --- | --- | --- | --- | --- | --- |
| CC(c1ccccc1C1CC2CCC1C2)N(C(=O)c1c(C(F)F)nn(C)c1F)C1CC1 (centres unmarked) [I.15, N-{1-[2-(bicyclo[2.2.1]hept-2-yl)phenyl]ethyl}-N-cyclopropyl-3-(difluoromethyl)-5-fluoro-1-methyl-1H-pyrazole-4-carboxamide] | 4.98 | 88% |  | 100% | 97% | 100% | 100% | 88% | ≥ 80% | ≥ 80% | 4.91 |

Source: patent US9770022B2, “N-cycloalkyl-N-[(bicyclylphenyl)methylene]-(thio)carboxamide derivatives” (BAYER CROPSCIENCE AG, priority 2013, dated 2017)
